Test results as given in patent publication US9227971B2, “Pyrazolo[1,5-a]pyrimidine compounds as mTOR inhibitors” (Merck Sharp & Dohme Corp., priority 2010, dated 2016).
Like-named read-outs stand apart in the source and are kept apart here.

Key:
[1] = system: phosphorylated AKT Ser473 (pAKT S473), mTORC2 activity, PC3 cells; test: mTOR target engagement assay, immunofluorescent cell-based, pAKT S473 readout (mTORC2 activity); settings: Homo sapiens
How it was run: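 After blocking, cells were stained overnight at 4 °C with anti-pAKT S473 antibody, then a fluorescent secondary; inhibition was read as reduced fluorescence intensity.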

[2] = system: phosphorylated 4E-BP1 Thr37/46 (p4E-BP1 Thr37/46), mTORC1 activity, PC3 cells; test: mTOR target engagement assay, immunofluorescent cell-based, p4E-BP1 Thr37/46 readout (mTORC1 activity); settings: Homo sapiens, read-out: p4E-BP1 Thr37/46 IC50
How it was run: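 Seed PC3 cells overnight; treat with compound dilutions for ninety minutes at 37° C; fix with glyoxal and block; stain with anti-p4E-BP1 Thr37/46 overnight at 4° C, then fluorescent secondary; read fluorescence and fit IC50 against DMSO-only controls.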

[3] = PC-3, PC3 cells, compound treatment ninety minutes at 37° C.

In the case of `COc1ccc(-c2ccc(-c3cnn4c(N)c(Br)c([C@@H]5C[C@H]6CC[C@@H](C5)N6C(=O)[C@@H](C)O)nc34)cn2)cc1CO` [Compound 2.3, (R)-1-((1R,3S,5S)-3-(7-amino-6-bromo-3-(6-(3-(hydroxymethyl)-4-methoxyphenyl)pyridin-3-yl)pyrazolo[1,5-a]pyrimidin-5-yl)-8-azabicyclo[3.2.1]octan-8-yl)-2-hydroxypropan-1-one], the IC50 [1, 3] is reported as 1 to 100 nM and the IC50 [2, 3] is reported as 1 to 100 nM.
For `Cc1nnc(C(=O)N2[C@@H]3CC[C@H]2C[C@H](c2nc4c(-c5ccc(-c6nc(C)c(C)s6)nc5)cnn4c(N)c2S(C)(=O)=O)C3)[nH]1` [Compound 3.197, ((1R,3s,5S)-3-(7-amino-3-(6-(4,5-dimethylthiazol-2-yl)pyridin-3-yl)-6-(methylsulfonyl)pyrazolo[1,5-a]pyrimidin-5-yl)-8-azabicyclo[3.2.1]octan-8-yl)(5-methyl-4H-1,2,4-triazol-3-yl]methanone], the IC50 ([1]; PC-3, Table 3-1, PC3 cells) was 100 to 1000 nM and the IC50 ([2]; PC-3, Table 3-1, PC3 cells) was 100 to 1000 nM.
`Cc1csc(-c2ccc(-c3cnn4c(N)c(S(C)(=O)=O)c([C@@H]5C[C@H]6CC[C@@H](C5)N6C(=O)c5nnc(C)[nH]5)nc34)cn2)n1` [Compound 3.191, ((1R,3s,5S)-3-(7-amino-6-(methylsulfonyl)-3-(6-(4-methylthiazol-2-yl)pyridin-3-yl)pyrazolo[1,5-a]pyrimidin-5-yl)-8-azabicyclo[3.2.1]octan-8-yl)(5-methyl-4H-1,2,4-triazol-3-yl)methanone] gave an IC50 ([1]; PC-3, Table 3-1, PC3 cells) of 100 to 1000 nM and an IC50 ([2]; PC-3, Table 3-1, PC3 cells) of 100 to 1000 nM.
Work on `CCc1c([C@@H]2C[C@H]3CC[C@@H](C2)N3C(=O)CO)nc2c(-c3ccc(-c4ncc[nH]4)nc3)cnn2c1N` [Compound 6.5, 1-((1R,3s,5S)-3-(3-(6-(1H-imidazol-2-yl)pyridin-3-yl)-7-amino-6-ethylpyrazolo[1,5-a]pyrimidin-5-yl)-8-azabicyclo[3.2.1]octan-8-yl)-2-hydroxyethanone] yielded an IC50 ([1]; PC-3, Table 6-1, PC3 cells) of 1 to 100 nM and an IC50 ([2]; PC-3, Table 6-1, PC3 cells) of 1 to 100 nM.
`COCc1cnc(-c2ccc(-c3cnn4c(N)c(C(C)=O)c([C@@H]5C[C@H]6CC[C@@H](C5)N6C(=O)c5nnc[nH]5)nc34)cn2)s1` [Compound 1.1.52, 1-(5-((1R,3s,5S)-8-(4H-1,2,4-triazole-3-carbonyl)-8-azabicyclo[3.2.1]octan-3-yl)-7-amino-3-(6-(5-(methoxymethyl)thiazol-2-yl)pyridin-3-yl)pyrazolo[1,5-a]pyrimidin-6-yl)ethanone] gave an IC50 [1, 3] of 100 to 1000 nM and an IC50 [2, 3] of 100 to 1000 nM.
With `CC(=O)c1c([C@@H]2C[C@H]3CC[C@@H](C2)N3C(=O)c2ccn[nH]2)nc2c(-c3ccc(-c4ccn(C)n4)nc3)cnn2c1N` [Compound 1.1.121, 1-(5-((1R,3s,5S)-8-(1H-pyrazole-5-carbonyl)-8-azabicyclo[3.2.1]octan-3-yl)-7-amino-3-(6-(1-methyl-1H-pyrazol-3-yl)pyridin-3-yl)pyrazolo[1,5-a]pyrimidin-6-yl)ethanone] the IC50 [1, 3] was 1 to 100 nM and the IC50 [2, 3] was 100 to 1000 nM.
Compound `CC(=O)c1c([C@@H]2C[C@H]3CC[C@@H](C2)N3C(=O)c2nnc(C)[nH]2)nc2c(-c3ccc(C(N)(C(F)(F)F)C(F)(F)F)nc3)cnn2c1N` [Compound 7.82, 1-(7-amino-3-(6-(2-amino-1,1,1,3,3,3-hexafluoropropan-2-yl)pyridin-3-yl)-5-((1R,3s,5S)-8-(5-methyl-4H-1,2,4-triazole-3-carbonyl)-8-azabicyclo[3.2.1]octan-3-yl)pyrazolo[1,5-a]pyrimidin-6-yl)ethanone] has an IC50 ([1]; PC-3, PC3 cells) of 1000 to 10000 nM and an IC50 ([2]; PC-3, PC3 cells) of 1000 to 10000 nM.
`COc1ccc(-c2ccc(-c3cnn4c(N)c(C(C)=O)c([C@@H]5C[C@H]6CC[C@@H](C5)N6C(=O)c5nnc[nH]5)nc34)cn2)cc1F` [Compound 1.1.57, 1-(5-((1R,3s,5S)-8-(4H-1,2,4-triazole-3-carbonyl)-8-azabicyclo[3.2.1]octan-3-yl)-7-amino-3-(6-(3-fluoro-4-methoxyphenyl)pyridin-3-yl)pyrazolo[1,5-a]pyrimidin-6-yl)ethanone] showed an IC50 [1, 3] of 1 to 100 nM and an IC50 [2, 3] of 1 to 100 nM.
`CC(=O)c1c([C@@H]2C[C@H]3CC[C@@H](C2)N3C(=O)c2nnc[nH]2)nc2c(-c3ccc([C@H](O)C(F)(F)F)nc3)cnn2c1N` [Compound 7.74, 1-(5-((1R,3s,5S)-8-(4H-1,2,4-triazole-3-carbonyl)-8-azabicyclo[3.2.1]octan-3-yl)-7-amino-3-(6-((S)-2,2,2-trifluoro-1-hydroxyethyl)pyridin-3-yl)pyrazolo[1,5-a]pyrimidin-6-yl)ethanone] gave an IC50 ([1]; PC-3, PC3 cells) of 100 to 1000 nM and an IC50 ([2]; PC-3, PC3 cells) of 100 to 1000 nM.
For `Cc1[nH]nc(-c2ccc(-c3cnn4c(N)c(C5CC5)c([C@@H]5C[C@H]6CC[C@@H](C5)N6C(=O)c5nnc[nH]5)nc34)cn2)c1F` [Compound 4.19, ((1R,3s,5S)-3-(7-amino-6-cyclopropyl-3-(6-(4-fluoro-5-methyl-1H-pyrazol-3-yl)pyridin-3-yl)pyrazolo[1,5-a]pyrimidin-5-yl)-8-azabicyclo[3.2.1]octan-8-yl)(4H-1,2,4-triazol-3-yl)methanone], the IC50 [1, 3] was 100 to 1000 nM and the IC50 [2, 3] was 100 to 1000 nM.
Work on `CNC(=O)c1ccc(-c2cnn3c(N)c(C(C)=O)c([C@@H]4C[C@H]5CC[C@@H](C4)N5C(=O)c4nc[nH]n4)nc23)cn1` [Compound 1.1.28, 5-(5-((1R,3s,5S)-8-(1H-1,2,4-triazole-3-carbonyl)-8-azabicyclo[3.2.1]octan-3-yl)-6-acetyl-7-aminopyrazolo[1,5-a]pyrimidin-3-yl)-N-methylpicolinamide] yielded an IC50 [1, 3] of 1000 to 10000 nM and an IC50 [2, 3] of 1000 to 10000 nM.
`CN(C)c1nnc(C(=O)N2[C@@H]3CC[C@H]2C[C@H](c2nc4c(-c5ccc(-c6ccccc6)nc5)cnn4c(N)c2S(C)(=O)=O)C3)[nH]1` [Compound 3.93, ((1R,3s,5S)-3-(7-amino-6-(methylsulfonyl)-3-(6-phenylpyridin-3-yl)pyrazolo[1,5-a]pyrimidin-5-yl)-8-azabicyclo[3.2.1]octan-8-yl)(5-(dimethylamino)-4H-1,2,4-triazol-3-yl)methanone] showed an IC50 ([1]; PC-3, Table 3-1, PC3 cells) of 100 to 1000 nM and an IC50 ([2]; PC-3, Table 3-1, PC3 cells) of 100 to 1000 nM.
For `CC(=O)C(=O)N1[C@@H]2CC[C@H]1C[C@H](c1nc3c(-c4ccc(-c5ccccc5)nc4)cnn3c(N)c1C(C)=O)C2` [Compound 1.1.117, 1-((1R,3s,5S)-3-(6-acetyl-7-amino-3-(6-phenylpyridin-3-yl)pyrazolo[1,5-a]pyrimidin-5-yl)-8-azabicyclo[3.2.1]octan-8-yl)propane-1,2-dione], the IC50 [1, 3] was 100 to 1000 nM and the IC50 [2, 3] was 100 to 1000 nM.
In the case of `CC(=O)c1c([C@@H]2C[C@H]3CC[C@@H](C2)N3C(=O)c2ncn[nH]2)nc2c(-c3cnc(C(C)(C)O)c(F)c3)cnn2c1N` [Compound 7.98, 1-(5-((1R,3s,5S)-8-(1H-1,2,4-triazole-5-carbonyl)-8-azabicyclo[3.2.1]octan-3-yl)-7-amino-3-(5-fluoro-6-(2-hydroxypropan-2-yl)pyridin-3-yl)pyrazolo[1,5-a]pyrimidin-6-yl)ethanone], the IC50 ([1]; PC-3, PC3 cells) is reported as 1 to 100 nM and the IC50 ([2]; PC-3, PC3 cells) is reported as 1 to 100 nM.
In the case of `CS(=O)(=O)c1c([C@@H]2C[C@H]3CC[C@@H](C2)N3C(=O)C2(O)CC2)nc2c(-c3ccc(-c4ccccc4)nc3)cnn2c1N` [Compound 3.12, ((1R,3s,5S)-3-(7-amino-6-(methylsulfonyl)-3-(6-phenylpyridin-3-yl)pyrazolo[1,5-a]pyrimidin-5-yl)-8-azabicyclo[3.2.1]octan-8-yl)(1-hydroxycyclopropyl)methanone], the IC50 ([1]; PC-3, Table 3-1, PC3 cells) is reported as 100 to 1000 nM and the IC50 ([2]; PC-3, Table 3-1, PC3 cells) is reported as 1000 to 10000 nM.
